Series [1] concerns the target NLR family CARD domain-containing protein 4 (Mus musculus) (UniProt Q3UP24). The series can be described thus: Inhibition of NLRC4 inflammasome in LPS-primed mouse J774.A1 cells assessed as IL-1beta secretion at 10 uM preincubated for 1 hr followed by flagellin addition and measured after 6 hrs by ELISA relative to control. Type of series: cell-based. Also on record: scale not given: the % may be the effect or the level left. As to conditions: time 7.0 hrs. Background: An ELISA detects its analyte on a solid surface through an enzyme-linked reagent.

Another series has as its system J774.A1. The series can be described thus: (§1) Cytotoxicity against mouse J774.A1 cells assessed as cell viability at 10 uM incubated for 4 hrs by MTT assay relative to control. Format: toxicity, cell-based. As to conditions: j774.a1, 4 h, 10 µM. (In general: Tetrazolium dyes change colour on reduction, which living cells bring about.)
Series [2] deals with T1, NACHT, LRR and PYD domains-containing protein 3 (Mus musculus, UniProt Q8R4B8). In words: Inhibition of NLRP3 inflammasome in LPS-primed mouse J774.A1 cells assessed as reduction in IL-1beta secretion preincubated for 30 mins followed by ATP addition and measured after 30 mins by ELISA. Format: cell-based.
The next series concerns HEK293. In words: (§2) Cytotoxicity against HEK293 cells assessed as cell viability at 10 uM incubated for 4 hrs by MTT assay relative to control. Type of series: toxicity, cell-based. As to conditions: human, hek293, 4 h, 10 µM.
In series [3] the target is T2, Interferon-inducible protein AIM2 (Mus musculus) (UniProt Q91VJ1).
T2 sequence (whole entry): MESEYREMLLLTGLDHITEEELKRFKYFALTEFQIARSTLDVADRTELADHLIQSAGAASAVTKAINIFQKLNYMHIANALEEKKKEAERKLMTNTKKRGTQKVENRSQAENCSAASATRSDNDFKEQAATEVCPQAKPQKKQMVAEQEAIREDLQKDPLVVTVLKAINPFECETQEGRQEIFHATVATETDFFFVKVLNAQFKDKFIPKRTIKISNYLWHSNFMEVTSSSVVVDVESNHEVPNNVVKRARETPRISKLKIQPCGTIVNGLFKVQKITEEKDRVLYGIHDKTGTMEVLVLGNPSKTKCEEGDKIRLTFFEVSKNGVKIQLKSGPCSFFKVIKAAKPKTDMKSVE
In words: Inhibition of AIM2 inflammasome in LPS-primed mouse J774.A1 cells assessed as IL-1beta secretion at 10 uM preincubated for 1 hr followed by poly(dA:dT) addition and measured after 4 hrs by ELISA relative to control. Format: cell-based. As to conditions: time 5.0 hrs. Further details: scale not given: the % may be the effect or the level left.

Series [4] concerns the target T1, NACHT, LRR and PYD domains-containing protein 3. In words: Inhibition of NLRP3 inflammasome in LPS-primed mouse BMDM cells assessed as reduction in IL-1beta secretion preincubated for 30 mins followed by ATP addition and measured after 30 mins by ELISA. Format: cell-based.
A short description of series [5]: Inhibition of IL-1beta production in C57BL/6 mouse assessed as reduction in IL-1beta level in serum at 10 mg/kg, ip pretreated with compound followed by LPS addition and measured after 2.5 hrs by ELISA. Type of series: functional.
Series [6] addresses NACHT, LRR and PYD domains-containing protein 3 (Homo sapiens, UniProt Q96P20). The series can be described thus: Binding affinity to human recombinant full length NLRP3 transfected in HEK293F cells assessed as dissociation constant incubated for 40 mins by microscale thermophoresis analysis. A general note: Microscale thermophoresis detects binding through changes in fluorescence in a small temperature gradient.

The target of series [7] is T3, Interferon-inducible protein AIM2 (Mus musculus, UniProt Q91VJ1).
T3 sequence (Q91VJ1 whole entry): T2 sequence (whole entry)
The series can be described thus: Inhibition of AIM2 inflammasome in LPS-primed mouse J774.A1 cells assessed as reduction in IL-1beta secretion preincubated for 1 hr followed by poly(dA:dT) addition and measured after 4 hrs by ELISA. Type of series: cell-based.

Series [8] concerns the target NLR family CARD domain-containing protein 4 (Mus musculus, UniProt Q3UP24). In words: Inhibition of NLRC4 inflammasome in LPS-primed mouse J774.A1 cells assessed as reduction in IL-1beta secretion preincubated for 1 hr followed by flagellin addition and measured after 6 hrs by ELISA. Format: cell-based.
Series [9] in a line: as §1. Type of series: toxicity, cell-based. As to conditions: J774.A1 cells, read-out: Activity.
Series [10] can be described thus: as §2. Type of series: toxicity, cell-based. As to conditions: human, HEK293 cells, read-out: Activity.

T1 sequence (Q8R4B8 whole entry, the tested form may be a part): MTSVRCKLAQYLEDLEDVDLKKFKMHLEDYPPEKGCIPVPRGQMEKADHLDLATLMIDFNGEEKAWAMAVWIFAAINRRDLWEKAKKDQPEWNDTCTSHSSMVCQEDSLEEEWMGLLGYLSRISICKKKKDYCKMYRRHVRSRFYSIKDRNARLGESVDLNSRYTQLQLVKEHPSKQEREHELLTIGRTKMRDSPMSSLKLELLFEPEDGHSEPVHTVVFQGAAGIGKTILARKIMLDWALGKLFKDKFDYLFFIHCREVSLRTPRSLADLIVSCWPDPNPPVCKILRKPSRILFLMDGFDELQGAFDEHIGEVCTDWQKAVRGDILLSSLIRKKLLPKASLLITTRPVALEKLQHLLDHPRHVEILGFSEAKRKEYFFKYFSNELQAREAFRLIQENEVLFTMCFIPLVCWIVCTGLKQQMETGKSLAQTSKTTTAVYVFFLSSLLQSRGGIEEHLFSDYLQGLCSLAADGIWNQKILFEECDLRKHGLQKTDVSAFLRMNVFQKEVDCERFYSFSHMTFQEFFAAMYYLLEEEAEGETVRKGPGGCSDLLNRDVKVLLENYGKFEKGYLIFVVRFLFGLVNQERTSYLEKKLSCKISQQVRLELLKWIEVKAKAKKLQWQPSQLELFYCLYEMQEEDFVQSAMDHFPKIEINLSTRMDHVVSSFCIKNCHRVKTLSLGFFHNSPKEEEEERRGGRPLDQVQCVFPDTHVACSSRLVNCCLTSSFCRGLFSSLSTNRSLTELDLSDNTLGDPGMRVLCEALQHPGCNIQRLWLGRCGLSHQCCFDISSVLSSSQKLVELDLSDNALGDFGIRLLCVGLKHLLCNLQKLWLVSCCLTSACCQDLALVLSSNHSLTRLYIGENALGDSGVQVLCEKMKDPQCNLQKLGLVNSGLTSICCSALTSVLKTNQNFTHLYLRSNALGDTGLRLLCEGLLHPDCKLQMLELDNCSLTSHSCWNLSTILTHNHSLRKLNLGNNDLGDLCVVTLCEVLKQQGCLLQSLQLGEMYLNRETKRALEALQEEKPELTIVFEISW
Chain of NLR family CARD domain-containing protein 4 (Q3UP24 whole entry, the tested form may be a part): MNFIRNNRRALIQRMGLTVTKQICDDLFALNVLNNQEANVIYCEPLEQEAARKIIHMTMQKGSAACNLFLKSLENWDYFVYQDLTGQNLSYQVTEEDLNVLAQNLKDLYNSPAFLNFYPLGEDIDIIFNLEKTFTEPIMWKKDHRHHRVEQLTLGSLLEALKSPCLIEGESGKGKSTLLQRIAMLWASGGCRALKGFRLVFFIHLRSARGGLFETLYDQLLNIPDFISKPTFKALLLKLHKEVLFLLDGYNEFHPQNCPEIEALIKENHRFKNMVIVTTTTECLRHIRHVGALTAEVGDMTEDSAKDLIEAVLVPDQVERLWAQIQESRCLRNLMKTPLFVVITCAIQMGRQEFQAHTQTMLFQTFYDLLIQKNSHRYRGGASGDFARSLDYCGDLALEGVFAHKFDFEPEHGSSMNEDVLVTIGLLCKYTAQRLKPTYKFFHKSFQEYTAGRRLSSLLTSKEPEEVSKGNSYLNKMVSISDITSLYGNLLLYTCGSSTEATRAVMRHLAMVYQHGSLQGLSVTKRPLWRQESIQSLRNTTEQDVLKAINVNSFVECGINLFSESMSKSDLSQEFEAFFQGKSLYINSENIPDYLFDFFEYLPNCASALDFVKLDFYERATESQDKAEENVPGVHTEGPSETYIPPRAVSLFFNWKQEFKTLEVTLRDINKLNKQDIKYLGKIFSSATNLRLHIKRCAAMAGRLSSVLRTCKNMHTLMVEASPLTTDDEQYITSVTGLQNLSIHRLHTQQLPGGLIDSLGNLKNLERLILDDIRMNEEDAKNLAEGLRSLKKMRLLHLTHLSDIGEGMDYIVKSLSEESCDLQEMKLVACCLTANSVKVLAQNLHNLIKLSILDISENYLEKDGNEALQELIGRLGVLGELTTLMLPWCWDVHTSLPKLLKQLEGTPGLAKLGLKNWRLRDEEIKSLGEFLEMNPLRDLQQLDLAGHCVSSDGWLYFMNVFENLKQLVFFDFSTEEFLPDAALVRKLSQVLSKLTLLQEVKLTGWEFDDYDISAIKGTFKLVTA
Chain of NLR family CARD domain-containing protein 4 (Mus musculus) (Q3UP24 whole entry, the tested form may be a part): as above
Chain of NACHT, LRR and PYD domains-containing protein 3 (Homo sapiens, UniProt Q96P20) (Q96P20 whole entry, the tested form may be a part): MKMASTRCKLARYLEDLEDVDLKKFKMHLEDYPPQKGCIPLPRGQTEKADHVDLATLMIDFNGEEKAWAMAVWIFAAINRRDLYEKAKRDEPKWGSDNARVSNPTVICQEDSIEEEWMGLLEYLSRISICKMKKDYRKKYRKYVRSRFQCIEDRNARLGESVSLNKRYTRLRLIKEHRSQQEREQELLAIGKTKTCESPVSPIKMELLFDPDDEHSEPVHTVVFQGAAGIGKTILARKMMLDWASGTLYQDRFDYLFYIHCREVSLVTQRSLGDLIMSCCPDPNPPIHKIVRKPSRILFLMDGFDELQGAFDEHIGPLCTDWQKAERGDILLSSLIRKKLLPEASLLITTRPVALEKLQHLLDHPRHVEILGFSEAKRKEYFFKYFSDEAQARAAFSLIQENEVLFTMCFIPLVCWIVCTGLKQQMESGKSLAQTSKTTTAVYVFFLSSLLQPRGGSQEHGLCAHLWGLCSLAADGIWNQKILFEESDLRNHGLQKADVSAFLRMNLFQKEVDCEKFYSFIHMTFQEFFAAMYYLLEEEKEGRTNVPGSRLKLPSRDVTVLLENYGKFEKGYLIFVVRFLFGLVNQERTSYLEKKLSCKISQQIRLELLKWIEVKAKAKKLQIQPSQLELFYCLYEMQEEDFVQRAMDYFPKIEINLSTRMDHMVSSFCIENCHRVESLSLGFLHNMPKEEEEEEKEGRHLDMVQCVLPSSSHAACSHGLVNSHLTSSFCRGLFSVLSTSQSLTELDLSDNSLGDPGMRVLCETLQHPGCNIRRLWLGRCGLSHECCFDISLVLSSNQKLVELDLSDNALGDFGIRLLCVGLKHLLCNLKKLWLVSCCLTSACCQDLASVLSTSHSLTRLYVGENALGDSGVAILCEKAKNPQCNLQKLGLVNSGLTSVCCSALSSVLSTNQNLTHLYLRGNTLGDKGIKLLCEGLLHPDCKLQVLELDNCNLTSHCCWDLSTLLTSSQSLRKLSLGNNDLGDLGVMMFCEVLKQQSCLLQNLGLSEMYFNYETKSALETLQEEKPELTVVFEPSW

As a reminder, the IC50 is the concentration that inhibits the measured activity by half. `C#CCNS(=O)(=O)c1ccc(CCN(Cc2ccco2)C(=O)Cc2ccsc2)cc1`: the Activity is 76.2% in [1], 112.9% in the series on J774.A1, 96.4% in the series with HEK293 and 89.4% in [3]. For the same compound, the IC50 in series [2] came to 2490 nM.
Consider `C#CCNS(=O)(=O)c1ccc(CCN(Cc2cc(Cl)ccc2O)C(=O)Cc2ccsc2)cc1`, for which the Activity in [1] was found to be 8%; in the series on J774.A1, 92%; with HEK293, 97.6%; in series [3] it was 47.3%. For the same compound, the IC50 in series [2] was found to be 680 nM.
For the compound `C#CCNS(=O)(=O)c1ccc(CCN(Cc2cc(Cl)ccc2C(F)(F)F)C(=O)Cc2ccsc2)cc1`, the Activity stood at 93.1% with J774.A1 and 92.1% with HEK293. Further, the IC50 in series [2] is 460 nM.
`CCCOc1ccc(Cl)cc1CN(CCc1ccc(S(=O)(=O)NCC(C)(C)C)cc1)C(=O)Cc1ccsc1`: the Activity turned out to be 89.3% in [1], 105.1% with J774.A1 and 52.3% in series [3]. The IC50 in series [2] turned out to be 660 nM.
As for `C#CCNS(=O)(=O)c1ccc(CCN(Cc2ccccc2OCCC)C(=O)Cc2ccsc2)cc1`, the Activity was determined as 70.1% in series [1], 100.2% in the series on J774.A1, 98.9% in the series on HEK293 and 61.4% in series [3]. Besides, in series [2], the IC50 was determined as 790 nM.
As for `CCCOc1ccc(Cl)cc1CN(CCc1ccc(S(=O)(=O)N2CCOCC2)cc1)C(=O)Cc1ccsc1`, the Activity in the series with J774.A1 was 103.4%; in the series on HEK293, 88.3%. Also, in series [2], the IC50 is 470 nM.
For `C#CCNS(=O)(=O)c1ccc(CCN(Cc2ccsc2)Cc2cc(Cl)ccc2OCCC)cc1`, the Activity in series [1] stood at 28.9%; in the series with J774.A1 it was 90.5%; with HEK293, 82%; in series [3], 49.8%. The IC50 in series [2] was found to be 750 nM.
Turning to `C#CCNS(=O)(=O)c1ccc(CCN(Cc2cc(Cl)ccc2OCCC)C(=O)Cc2ccsc2)cc1`, the Activity in the series on J774.A1 is 106%; with HEK293, 99%.
With `C#CCNS(=O)(=O)c1ccc(CCN(Cc2cccc3c2OCO3)C(=O)Cc2ccsc2)cc1`, the Activity in series [1] stood at 66.9%; with J774.A1, 100%; in the series on HEK293, 100.7%; in [3] it was 68.8%. The half-inhibitory concentration (IC50) in [2] was found to be 340 nM.
As usually defined, the inhibition in vivo is the percentage by which the read-out fell short of the control. What is called Kd is the equilibrium constant for the complex coming apart. `C#CCNS(=O)(=O)c1ccc(CCN(Cc2cc(Cl)ccc2OCCC)C(=O)c2ccc(F)cc2)cc1`: the IC50 in series [4] was 910 nM; in series [2], 120 nM; in series [7] it was > 10000 nM; in series [8], > 10000 nM. Besides, the inhibition in vivo at 10 mg/kg in series [5] worked out at 75%. For the same compound, the Activity amounted to 101% in series [1], 96.3% in the series on J774.A1, 91.6% with HEK293 and 67.6% in [3]. In series [6], the Kd stood at 84 nM.
Consider `CCCOc1ccc(Cl)cc1CN(CCc1ccc(S(=O)(=O)N2CCC2)cc1)C(=O)Cc1ccc(F)cc1`, for which the Activity in series [1] worked out at 109%; in the series on J774.A1, 106.1%; in the series with HEK293, 103.6%; in series [3], 102%. For the same compound, the IC50 in [2] stood at 1350 nM.
For `C#CCNS(=O)(=O)c1ccc(CCN(Cc2cc(Cl)ccc2[N+](=O)[O-])C(=O)Cc2ccsc2)cc1`, the Activity amounted to 78.9% in series [1], 98.7% in the series with J774.A1, 96.2% in the series with HEK293 and 82.7% in series [3]. The IC50 in [2] worked out at 300 nM.
Take `C#CCNS(=O)(=O)c1ccc(CCN(Cc2cc(Cl)ccc2OCCC)C(=O)c2ccc([N+](=O)[O-])cc2)cc1`: the figures for the Activity in the series with J774.A1 and in the series with HEK293 were 101.3% and 91.6%, respectively. For the same compound, the IC50 in series [2] was determined as 760 nM.
In the case of `C#CCN(C)S(=O)(=O)c1ccc(CCN(Cc2cc(Cl)ccc2OCCC)C(=O)Cc2ccsc2)cc1`, the Activity is 80.8% in series [1], 105.8% with J774.A1, 94.5% in the series with HEK293 and 108% in [3]. The values for the IC50 in [2], in series [7] and in [8] were 320 nM, > 10000 nM and > 10000 nM, respectively.
Consider `C#CCS(=O)(=O)c1ccc(CCN(Cc2cc(Cl)ccc2OCCC)C(=O)c2csc3ccccc23)cc1`, for which the Activity was 29.1% in [1], 85.7% with J774.A1, 95.6% in the series with HEK293 and 0% in series [3]. The IC50 in series [2] is 440 nM.
`CCCOc1ccc(Cl)cc1CN(CCc1ccc(S(=O)(=O)N2CCC2)cc1)C(=O)c1csc2ccccc12`: the Activity in the series with J774.A1 amounted to 107%; with HEK293, 100.7%. Also, in [2], the IC50 is 7580 nM.
In the case of `C#CCNS(=O)(=O)c1ccc(CCN(Cc2cccc3c2OCO3)C(=O)Cc2ccc(F)cc2)cc1`, the Activity in series [1] worked out at 102%; in the series on J774.A1, 96.8%; in the series on HEK293, 96.2%; in series [3] it was 59.1%. For the same compound, the half-maximal inhibitory concentration (IC50) in series [2] stood at 190 nM.
Regarding `C#CCNS(=O)(=O)c1ccc(CCN(Cc2cc(Cl)ccc2OCCC)C(=O)c2csc3c2CCCC3)cc1`, the Activity is 93.7% with J774.A1 and 95.9% in the series with HEK293. Also, in series [2], the IC50 came to 510 nM.
The like results for `C#CCNS(=O)(=O)c1ccc(CCN(Cc2cc(Cl)ccc2OCC#C)C(=O)Cc2ccsc2)cc1` were, in that order, 95.5%, 94.8% and 210 nM.
The like results for `C#CCNS(=O)(=O)c1ccc(CCN(Cc2cc(Cl)ccc2OCCC)C(=O)Cc2ccc(F)cc2)cc1` were, in that order, 102.2%, 90.6% and 280 nM.
As for `C#CCNS(=O)(=O)c1ccc(CCN(Cc2cc(Cl)ccc2OCCC)C(=O)Cc2csc3ccccc23)cc1`, the Activity turned out to be 85.6% in series [1], 105.4% with J774.A1, 99.8% with HEK293 and 96.7% in [3]. For the same compound, the figures for the IC50 in series [2], in series [7] and in [8] were 210 nM, > 10000 nM and > 10000 nM, respectively.
Take `C#CCNS(=O)(=O)c1ccc(CCN(Cc2cc(Cl)ccc2OCCC)C(=O)c2ccc(O)cc2)cc1`: the Activity in the series on J774.A1 is 83.5%; in the series on HEK293, 92.1%. Besides, the IC50 in series [2] stood at 620 nM.
Consider `C#CCNS(=O)(=O)c1ccc(CCN(Cc2cc(Cl)ccc2OCCC)C(=O)c2ccc(B3OC(C)(C)C(C)(C)O3)cc2)cc1`, for which the Activity in the series with J774.A1 turned out to be 88.1%; with HEK293, 95.2%. Moreover, the IC50 in series [2] is 2490 nM.
Consider `C#CCS(=O)(=O)c1ccc(CCN(Cc2cc(Cl)ccc2OCCC)C(=O)Cc2ccsc2)cc1`, for which the Activity was found to be 0% in series [1], 81.1% with J774.A1, 88.7% in the series on HEK293 and 0% in series [3]. Also, the IC50 in series [2] was found to be 190 nM.
Consider `C#CCNS(=O)(=O)c1ccc(CCN(Cc2cc(Cl)ccc2OCCC)C(=O)CCCc2ccsc2)cc1`, for which the Activity is 97.9% with J774.A1 and 89.1% with HEK293. The IC50 in series [2] stood at 1170 nM.
Take `C#CCNS(=O)(=O)c1ccc(CCN(Cc2cc(Cl)ccc2OCCC)C(=O)c2csc3ccccc23)cc1`: the Activity in series [1] worked out at 74.7%; in the series on J774.A1, 108.1%; in the series on HEK293, 92.6%; in series [3] it was 79.7%. In addition, in series [2], the IC50 came to 130 nM.
As for `CC(C)(C)c1coc(S(=O)(=O)NC(=O)Nc2c3c(cc4c2CCC4)CCC3)c1`, the viability at 4 h, 10 µM in series [9] is 94.9%; in [10] it was 95.2%.
Regarding `C#CCNS(=O)(=O)c1ccc(CCN(Cc2cccc3c2OCO3)C(=O)c2ccc(F)cc2)cc1`, the values for the Activity with J774.A1 and in the series on HEK293 were 99.5% and 93.4%, respectively. In addition, the IC50 in series [2] is 930 nM.
The like results for `C#CCNS(=O)(=O)c1ccc(CCN(Cc2cc(Cl)ccc2N)C(=O)Cc2ccsc2)cc1` were, in that order, 93.5%, 92.9% and 1130 nM.
